Several values for one entry are separate records, joined by “and”; a condition that tells them apart may be missing. Equal entries are not always repeated.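 In this assay, cells in 96-well plates receive the compound at five concentrations for 48 hours. Endpoints are linearly interpolated between the surrounding concentrations. GI50 marks 50% less growth. TGI is the concentration that stops growth completely.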
Legend:
Assay in all cases: DTP human tumour cell line panel, 48 h
MDA-MB-435 = system: MDA-MB-435
MOLT-4 leukemia = system: MOLT-4 leukemia
LOX IMVI melanoma = system: LOX IMVI melanoma
NCI/ADR-RES ovarian = system: NCI/ADR-RES ovarian
BT-549 breast = system: BT-549 breast
M14 melanoma = system: M14 melanoma
KM12 colon = system: KM12 colon
T-47D breast = system: T-47D breast
OVCAR-3 ovarian = system: OVCAR-3 ovarian
RXF 393 renal = system: RXF 393 renal

SMILES	GI50 (MDA-MB-435)	TGI (MDA-MB-435)	GI50 (MOLT-4 leukemia)	TGI (MOLT-4 leukemia)	GI50 (LOX IMVI melanoma) [µM]	TGI (LOX IMVI melanoma)	GI50 (NCI/ADR-RES ovarian)	TGI (NCI/ADR-RES ovarian)	GI50 (BT-549 breast)	TGI (BT-549 breast)	GI50 (M14 melanoma)	TGI (M14 melanoma)	GI50 (KM12 colon)	TGI (KM12 colon)	GI50 (T-47D breast)	TGI (T-47D breast)	GI50 (OVCAR-3 ovarian)	TGI (OVCAR-3 ovarian)	GI50 (RXF 393 renal)	TGI (RXF 393 renal)
COc1cc2c(cc1OC)C(=O)/C(=C/c1cccc(OCC(=O)c3ccccc3)c1)C2	23.1 µM	> 100 µM	2.58 µM	14 µM	18.3	> 100 µM	6.93 µM	> 100 µM	24.9 µM	> 100 µM	34.2 µM	> 100 µM	7.79 µM	> 100 µM	4.34 µM	68.8 µM	17.1 µM	> 100 µM	35.4 µM	> 100 µM
O=[N+]([O-])c1ccc(C(c2c[nH]c3ccccc23)c2c[nH]c3ccccc23)cc1		32.3 µM		40.9 µM		41.2 µM		27.5 µM		14.3 µM		33.2 µM		28.1 µM		7.07 µM		8.31 µM		
O=C(CN1CCN(c2ncccn2)CC1)Nc1ccc(Cl)cc1C(=O)c1ccccc1Cl	> 100 µM	> 100 µM	21.9 µM	> 100 µM	> 100	> 100 µM	> 100 µM	> 100 µM	> 100 µM	> 100 µM	> 100 µM	> 100 µM	69 µM	> 100 µM	30.8 µM	> 100 µM	> 100 µM	> 100 µM	> 100 µM	> 100 µM
CN1CC[C@@H](c2c(O)cc(O)c3c(=O)cc(-c4ccccc4Cl)oc23)[C@@H](O)C1	0.0886 µM and 0.0744 µM	0.261 µM and 0.22 µM and 0.342 µM	0.0429 µM and 0.0288 µM	0.662 µM and 0.521 µM	0.0289	> 100 µM	0.256 µM and 0.0763 µM		0.171 µM and 0.178 µM		0.0771 µM and 0.0278 µM	0.225 µM and 0.226 µM and 0.104 µM	0.0511 µM	26.6 µM	0.0824 µM and 0.0669 µM and 0.0342 µM		0.0636 µM and 0.0375 µM and 0.0256 µM	> 19.4 µM	0.0481 µM and 0.0218 µM and 0.0196 µM	0.0892 µM and 0.0495 µM and 0.0428 µM
C[C@@H]1C[C@@H](O)[C@]2(O)O[C@@H]3C[C@@]4(C=O)[C@@H](CC[C@@H]5[C@@H]4CC[C@]4(C)[C@@H](C6=CC(=O)OC6)CC[C@]54O)C[C@H]3O[C@@H]2O1		0.157 µM	0.00699 µM and 0.005 µM		0.0472	0.0624 µM and 0.165 µM and 0.0884 µM		0.118 µM		0.179 µM	0.0891 µM and 0.0324 µM	0.074 µM and 0.232 µM and 0.2 µM	0.0722 µM and 0.0346 µM	0.476 µM and 0.217 µM and 0.608 µM		0.89 µM	0.0241 µM			0.0599 µM
N#CCC1COc2ccccc2O1 (stereo unspecified)		> 10 µM		> 10 µM		> 10 µM		> 10 µM		> 10 µM		> 10 µM		> 10 µM		> 10 µM				
COc1ccc(C(=O)/C(Br)=C/C(=O)O)cc1	8.18 µM	111 µM and 33.5 µM	21 µM	98.5 µM and 86.5 µM	18.1	53.2 µM and 53 µM	18.3 µM	387 µM and 116 µM	242 µM	96.4 µM and 406 µM	52.9 µM	79.3 µM and 120 µM		48.8 µM and 48 µM	15.7 µM	149 µM and 260 µM	35.6 µM and 22.7 µM	133 µM and 116 µM	6.8 µM and 15.1 µM	19.4 µM and 50 µM
O=C(NNc1nc(Cl)nc(N2CCN(C(c3ccccc3)c3ccccc3)CC2)n1)c1ccccc1	1.75 µM	3.21 µM	1.66 µM	5.13 µM	1.54	2.94 µM	2.08 µM	4.41 µM	1.69 µM	3.09 µM	1.59 µM	3.12 µM	4.76 µM	> 100 µM	3.41 µM	> 100 µM	1.65 µM	3.13 µM	1.62 µM	3.13 µM
O=C(Nc1ccc(N2CCNCC2)cc1)c1[nH]ncc1Nc1ncnc2sc3c(c12)CCC3	0.199 µM	1.77 µM	0.0835 µM	1.07 µM	0.199	1.8 µM	1.48 µM	3.7 µM	1.13 µM	2.4 µM	0.146 µM	1.64 µM	0.219 µM	1.33 µM	0.852 µM	3.53 µM	0.256 µM	1.67 µM	0.394 µM	1.89 µM
CCOC(=O)c1ccc(NC(=O)N2CC(C)OC(C)C2)cc1 (stereo unspecified)	> 100 µM	> 100 µM	> 100 µM	> 100 µM	> 100	> 100 µM	> 100 µM	> 100 µM	> 100 µM	> 100 µM	> 100 µM	> 100 µM	> 100 µM	> 100 µM	> 100 µM	> 100 µM	> 100 µM	> 100 µM	> 100 µM	> 100 µM
COc1ccc2c(c1)/C(=C\c1c(C)nc3sc(C)cn13)C(=O)N2C	1.51 µM	5.72 µM	3.76 µM	> 100 µM	4.4	26.2 µM	1.32 µM	4.04 µM	6.01 µM	49.7 µM	4.99 µM	61.1 µM	4.87 µM	43.4 µM	1.78 µM	5.35 µM	1.43 µM	3.99 µM	4.84 µM	48.3 µM
COc1cc(/C(C#N)=C/c2ccc3c(c2OC)OCO3)cc2c1OCO2	0.0209 µM	0.0664 µM	0.111 µM	19.9 µM	0.07	20.3 µM	0.0346 µM	0.381 µM	0.669 µM	29.3 µM	0.0477 µM	7.81 µM	0.0424 µM	> 100 µM	6.18 µM	> 83.6 µM	0.0272 µM	0.0774 µM	0.174 µM	0.753 µM
Cc1ncc(CN=Cc2ccc(Cl)cc2)c(N)n1		> 100 µM		> 100 µM		> 100 µM		> 100 µM		> 100 µM		> 100 µM		> 100 µM		> 100 µM		> 100 µM		> 100 µM
CS(=O)(=O)CCNCc1nc(-c2ccc3ncnc(Nc4ccc(F)c(Cl)c4)c3c2)cs1	18 µM	> 25 µM	15.3 µM	> 25 µM	14.1	> 25 µM	13.9 µM	> 25 µM	> 25 µM	> 25 µM	21.5 µM	> 25 µM	21.1 µM	> 25 µM	8.57 µM	> 25 µM	11.1 µM	> 25 µM	9.75 µM	> 25 µM
COc1ccc2nc(N/N=C(\C)c3ccccn3)cc(C)c2c1	0.408 µM	1.69 µM	0.131 µM	0.488 µM	0.236	1.28 µM	0.274 µM		0.168 µM	1.96 µM	0.212 µM	1.13 µM	0.321 µM	1.6 µM	0.0766 µM	1.61 µM	0.0652 µM	0.215 µM		
O=C1NCc2ccc3c(-c4cccc(Cl)c4)c[nH]c3c21	0.0604 µM	0.239 µM	0.256 µM	> 50 µM	0.279	> 50 µM	0.175 µM	> 50 µM	0.245 µM	> 45.7 µM	0.147 µM	> 50 µM	0.196 µM	> 29.7 µM	0.277 µM	> 50 µM	0.18 µM	> 50 µM	0.296 µM	> 15.4 µM
C=C1C(=O)O[C@H]2[C@H]1CC/C(Cn1cc(CNC(=O)Cc3cn(C(=O)c4ccc(Cl)cc4)c4ccc(OC)cc34)nn1)=C\CC[C@@]1(C)O[C@@H]21	1.71 µM	3.45 µM	2 µM	6.16 µM			46.3 µM	> 100 µM	1.61 µM	3.41 µM	1.65 µM	3.28 µM	2.78 µM	7.23 µM	1.73 µM	5.05 µM	1.61 µM	3.19 µM	1.25 µM	2.59 µM
COc1ccc2c(c1)[nH]c(=O)c1c3cc(C)c(C)cc3cn21	< 0.01 µM		< 0.0176 µM	0.281 µM	< 0.014	1.66 µM			0.024 µM	0.366 µM	< 0.01 µM	1.2 µM	0.0292 µM	0.109 µM	1.17 µM	2.9 µM	< 0.01 µM	< 0.0143 µM	< 0.01 µM	1.22 µM
COc1cc2c3c(n(C)c(=O)c2cc1OC)-c1cc2c(cc1/C3=C\CCCCCN)OCO2	4.09 µM	> 90.6 µM					2.6 µM	> 48.8 µM	6.05 µM	21.3 µM	2.55 µM	> 46.6 µM	< 0.01 µM	90.1 µM	5.61 µM	> 55.5 µM	2.79 µM	22.1 µM	7 µM	41 µM
N#Cc1c(-c2nc3ccccc3s2)c(=O)oc2cc(O)ccc12		> 100 µM		> 100 µM		> 100 µM		> 100 µM		62.8 µM		> 100 µM		73 µM		78.2 µM		> 100 µM		> 100 µM
COc1nc(N(C)O)nc(N(C)O)n1	3.76 µM	> 100 µM	0.885 µM	> 100 µM	0.895	> 100 µM			3.16 µM	> 100 µM			2.99 µM	> 100 µM	4.51 µM	> 100 µM	0.794 µM	> 100 µM	1.95 µM	> 100 µM
CN(C)c1cccc2c(S(=O)(=O)N[C@H]3CC[C@H]4[C@@H]5CCc6cc(O)ccc6[C@H]5CC[C@]34C)cccc12	1.15 µM	2.69 µM	3.14 µM	> 100 µM			2.74 µM	9.9 µM	2.55 µM	6.5 µM	3.7 µM	18.3 µM			3.47 µM	30.1 µM	2.33 µM	6.26 µM	2.02 µM	4.34 µM
N#Cc1c(Sc2ccccc2N)cccc1Sc1ccccc1N	43.2 µM		22.2 µM				15.4 µM	38.4 µM	76.9 µM		62.6 µM		66.7 µM		51.7 µM				72.8 µM	
CCOC(=O)c1c2c(n3ccc(NC(=O)CCN4CCCC4)cc13)C(=O)c1ncccc1C2=O	1.53 µM	3.08 µM	1.52 µM	4.81 µM			1.27 µM	4.86 µM	1.54 µM	3.64 µM			1.52 µM	3.32 µM	1.7 µM	4.24 µM	1.48 µM	3.12 µM	1.41 µM	3.36 µM
COc1ccc(N=C2CSc3nnc(-c4cc(F)c(Cl)cc4Cl)n3N2)cc1	0.208 µM	0.785 µM	0.486 µM	14.9 µM	0.897	11.1 µM	2.96 µM	> 100 µM	1.77 µM	24.4 µM	0.572 µM	8.27 µM	0.469 µM	3.45 µM	4.03 µM	32.7 µM	0.466 µM	2.02 µM		
CC(=O)n1c(COS(C)(=O)=O)nc2ccccc21		> 100 µM				> 100 µM		> 100 µM		> 100 µM		> 100 µM		> 100 µM		> 100 µM		> 100 µM		> 100 µM
Nc1nc(SCc2ccccn2)c2ncn(C3CCCC3)c2n1		> 100 µM				> 100 µM		> 100 µM		> 100 µM		> 100 µM		> 100 µM		> 100 µM		> 100 µM		> 100 µM
COc1ccc(-c2nc3sc(C)cn3c2/C=C/C(=O)c2cc(OC)c(OC)c(OC)c2)cc1	2.61 µM	7.49 µM			3.51	> 100 µM	2.8 µM	8.11 µM	4.13 µM	> 100 µM	3.97 µM	> 100 µM	2.69 µM	6.39 µM	2.42 µM	8.94 µM	2.34 µM	5.83 µM		
N=C1C(c2nc(-c3ccc(Br)cc3)cs2)=C(O)CN1Cc1cccnc1	15.5 µM	> 100 µM	4.39 µM	42.7 µM	12	29.4 µM	16.3 µM	> 100 µM	42.6 µM	> 100 µM			18.9 µM	> 100 µM	4.89 µM	56.1 µM	14 µM	42 µM	7.98 µM	31.3 µM
